{
  "source": "patent US20110306572A1",
  "about": "“COMBINATION THERAPY FOR THE TREATMENT OF CANCER USING COX-2 INHIBITORS AND DUAL InHIBITORS OF EGFR [ErbB1] AND HER-2 [ErbB2]” (TRAGARA PHARMACEUTICALS, INC, priority 2007, published 2011)",
  "key": {"[1]": {"settings": "human, in vivo"}, "[2]": {"settings": "patients taking lapatinib; cited from earlier work"}},
  "data": [
    {"smiles": "CCOc1ccc(-c2cc(C)cn2-c2ccc(S(N)(=O)=O)cc2)cc1", "note": "[2-(4-ethoxyphenyl)-4-methyl-1-(4-sulfamoylphenyl)-pyrrole]", "values": [
      {"measurement": "gastric or duodenal toxicity", "setting": "[1]", "value": "no increase in gastric or duodenal toxicity"}
    ]},
    {"smiles": "CS(=O)(=O)CCNCc1ccc(-c2ccc3ncnc(Nc4ccc(OCc5cccc(F)c5)c(Cl)c4)c3c2)o1", "note": "[Lapatinib, N-(3-chloro-4-{[(3-fluorophenyl)methyl]oxy}phenyl)-6-[5-({[2-methylsulfonyl)ethyl]amino}methyl)-2-furanyl]-4-quinazolinamine bis(4-methylbenzenesulfonate) monohydrate, bis(4-methylbenzenesulfonate) …]", "values": [
      {"measurement": "patients with common side effects (rash, diarrhea, fatigue, palmar plantar erythrodysesthesia, nausea and vomiting)", "setting": "[2]", "value": "greater than 20 % of patients"}
    ]}
  ]
}
